ChEMBL document CHEMBL5303573, “Mapping human microbiome drug metabolism by gut bacteria and their genes” (Nature, 2019)

Key:
[1] = roseburia intestinalis, 12 h, 2 µM
Description: The drug is tested on Roseburia intestinalis strain: L1-82 for biotransformation. The drug concentrations were measured before and after a 12-h incubation by liquid-chromatography-coupled mass spectrometry (LC–MS)

[2] = The drug is tested on Alistipes indistinctus strain: DSM22520 for biotransformation. The drug concentrations were measured before and after a 12-h incubation by liquid-chromatography-coupled mass spectrometry (LC–MS); conditions: 2 µM
[3] = bacteroides fragilis, 12 h, 2 µM
Description: The drug is tested on Bacteroides fragilis strain: DS-208 for biotransformation. The drug concentrations were measured before and after a 12-h incubation by liquid-chromatography-coupled mass spectrometry (LC–MS)

[4] = The drug is tested on Bacteroides finegoldii strain: DSM17565 for biotransformation. The drug concentrations were measured before and after a 12-h incubation by liquid-chromatography-coupled mass spectrometry (LC–MS); conditions: 2 µM
[5] = The drug is tested on Bifidobacterium ruminantium strain: fecal isolate for biotransformation. The drug concentrations were measured before and after a 12-h incubation by liquid-chromatography-coupled mass spectrometry (LC–MS); conditions: 2 µM
[6] = The drug is tested on Parabacteroides merdae strain: ATCC43184 for biotransformation. The drug concentrations were measured before and after a 12-h incubation by liquid-chromatography-coupled mass spectrometry (LC–MS); conditions: 2 µM
[7] = The drug is tested on Bacteroides dorei strain: DSM17855 for biotransformation. The drug concentrations were measured before and after a 12-h incubation by liquid-chromatography-coupled mass spectrometry (LC–MS); conditions: phocaeicola dorei, 2 µM
[8] = The drug is tested on Bacteroides uniformis strain: ATCC8492 for biotransformation. The drug concentrations were measured before and after a 12-h incubation by liquid-chromatography-coupled mass spectrometry (LC–MS); conditions: 2 µM
[9] = The drug is tested on Blautia hansenii strain: DSM20583 for biotransformation. The drug concentrations were measured before and after a 12-h incubation by liquid-chromatography-coupled mass spectrometry (LC–MS); conditions: 2 µM
[10] = bacteroides thetaiotaomicron, 12 h, 2 µM
Description: The drug is tested on Bacteroides thetaiotaomicron strain: 7330 for biotransformation. The drug concentrations were measured before and after a 12-h incubation by liquid-chromatography-coupled mass spectrometry (LC–MS)

[11] = The drug is tested on Anaerococcus hydrogenalis strain: DSM7454 for biotransformation. The drug concentrations were measured before and after a 12-h incubation by liquid-chromatography-coupled mass spectrometry (LC–MS); conditions: 2 µM
[12] = The drug is tested on Clostridium ramosum strain: DSM1402 for biotransformation. The drug concentrations were measured before and after a 12-h incubation by liquid-chromatography-coupled mass spectrometry (LC–MS); conditions: thomasclavelia ramosa, 2 µM
[13] = The drug is tested on Bacteroides vulgatus strain: ATCC8482 for biotransformation. The drug concentrations were measured before and after a 12-h incubation by liquid-chromatography-coupled mass spectrometry (LC–MS); conditions: phocaeicola vulgatus, 2 µM
[14] = bacteroides thetaiotaomicron, 12 h, 2 µM; remark: listed apart in the source
Description: The drug is tested on Bacteroides thetaiotaomicron strain: VPI-5482 for biotransformation. The drug concentrations were measured before and after a 12-h incubation by liquid-chromatography-coupled mass spectrometry (LC–MS)

[15] = victivallis vadensis, 12 h, 2 µM
Description: The drug is tested on Victivallis vadensis strain: ATCC BAA-548 for biotransformation. The drug concentrations were measured before and after a 12-h incubation by liquid-chromatography-coupled mass spectrometry (LC–MS)

[16] = The drug is tested on Enterococcus faecalis strain: V583 for biotransformation. The drug concentrations were measured before and after a 12-h incubation by liquid-chromatography-coupled mass spectrometry (LC–MS); conditions: 2 µM
[17] = The drug is tested on Bacteroides coprophilus strain: DSM18228 for biotransformation. The drug concentrations were measured before and after a 12-h incubation by liquid-chromatography-coupled mass spectrometry (LC–MS); conditions: 2 µM
[18] = The drug is tested on Coprococcus comes strain: ATCC27758 for biotransformation. The drug concentrations were measured before and after a 12-h incubation by liquid-chromatography-coupled mass spectrometry (LC–MS); type: ADME; set-up: dose 2 uM, timepoint 0 vs 12 hours; conditions: 2 µM
[19] = The drug is tested on Escherichia coli strain: BW25113 for biotransformation. The drug concentrations were measured before and after a 12-h incubation by liquid-chromatography-coupled mass spectrometry (LC–MS); conditions: 2 µM
[20] = The drug is tested on Enterobacter cancerogenus strain: ATCC35316 for biotransformation. The drug concentrations were measured before and after a 12-h incubation by liquid-chromatography-coupled mass spectrometry (LC–MS); conditions: 2 µM

SMILES | Bacterial Biotransformation [1] | Bacterial Biotransformation [2] | Bacterial Biotransformation [3] | Bacterial Biotransformation [4] | Bacterial Biotransformation [5] | Bacterial Biotransformation [6] | Bacterial Biotransformation [7] | Bacterial Biotransformation [8] | Bacterial Biotransformation [9] | Bacterial Biotransformation [10] | Bacterial Biotransformation [11] | Bacterial Biotransformation [12] | Bacterial Biotransformation [13] | Bacterial Biotransformation [14] | Bacterial Biotransformation [15] | Bacterial Biotransformation [16] | Bacterial Biotransformation [17] | Bacterial Biotransformation [18] | Bacterial Biotransformation [19] | Bacterial Biotransformation [20]
Nc1ccc(/N=N/c2ccccc2)c(N)n1 [PHENAZOPYRIDINE] | Compound metabolized | Compound metabolized | Compound metabolized | Compound metabolized | Compound metabolized | Compound metabolized | Compound metabolized | Compound metabolized | Compound metabolized | Compound metabolized | Compound metabolized | Compound metabolized | Compound metabolized | Compound metabolized | Compound metabolized | Compound metabolized | Compound NOT metabolized | Compound metabolized | – | –
CCOC(=O)[C@H](CCc1ccccc1)N[C@H]1CCc2ccccc2N(CC(=O)O)C1=O [BENAZEPRIL] | Compound metabolized | Compound NOT metabolized | Compound metabolized | Compound metabolized | Compound NOT metabolized | Compound metabolized | Compound metabolized | Compound metabolized | Compound NOT metabolized | Compound metabolized | Compound NOT metabolized | Compound NOT metabolized | Compound metabolized | Compound metabolized | – | Compound metabolized | Compound metabolized | Compound NOT metabolized | Compound NOT metabolized | Compound NOT metabolized
CC(C(=O)O)c1ccc2c(c1)Cc1cccnc1O2 (configuration not stated) [PRANOPROFEN] | Compound NOT metabolized | Compound metabolized | Compound metabolized | Compound metabolized | Compound metabolized | Compound metabolized | Compound metabolized | Compound metabolized | Compound metabolized | Compound metabolized | Compound NOT metabolized | Compound metabolized | Compound metabolized | Compound metabolized | – | Compound NOT metabolized | Compound metabolized | Compound metabolized | Compound metabolized | Compound NOT metabolized
CCCC(C)(COC(N)=O)COC(=O)NC(C)C (configuration not stated) [CARISOPRODOL] | Compound metabolized | Compound NOT metabolized | Compound metabolized | Compound NOT metabolized | Compound NOT metabolized | Compound NOT metabolized | Compound metabolized | Compound metabolized | Compound metabolized | Compound metabolized | – | Compound NOT metabolized | Compound metabolized | Compound metabolized | – | Compound NOT metabolized | Compound metabolized | Compound NOT metabolized | Compound NOT metabolized | Compound NOT metabolized
CN1CCC(=C2c3ccccc3CCc3cccnc32)CC1.O=C(O)/C=C\C(=O)O.O=C(O)/C=C\C(=O)O [AZATADINE MALEATE] | Compound NOT metabolized | Compound NOT metabolized | Compound NOT metabolized | Compound NOT metabolized | Compound NOT metabolized | Compound NOT metabolized | – | – | – | Compound NOT metabolized | Compound NOT metabolized | Compound NOT metabolized | – | Compound NOT metabolized | Compound NOT metabolized | Compound NOT metabolized | Compound NOT metabolized | Compound NOT metabolized | Compound NOT metabolized | Compound NOT metabolized
COc1ccc2c(c1OC)C(=O)O[C@@H]2[C@H]1c2c(cc3c(c2OC)OCO3)CCN1C [NOSCAPINE] | Compound metabolized | Compound metabolized | Compound metabolized | Compound metabolized | Compound metabolized | Compound metabolized | Compound metabolized | Compound metabolized | – | Compound metabolized | Compound metabolized | Compound NOT metabolized | Compound metabolized | Compound metabolized | Compound NOT metabolized | Compound metabolized | Compound metabolized | Compound metabolized | Compound NOT metabolized | Compound metabolized
CC(=O)OCC(=O)NCCCOc1cccc(CN2CCCCC2)c1 [ROXATIDINE ACETATE] | Compound metabolized | Compound metabolized | Compound metabolized | Compound metabolized | Compound metabolized | Compound metabolized | Compound metabolized | Compound metabolized | – | Compound metabolized | Compound metabolized | Compound metabolized | Compound metabolized | Compound metabolized | Compound metabolized | Compound metabolized | Compound metabolized | Compound metabolized | Compound metabolized | Compound metabolized
CCCc1nc(C(C)(C)O)c(C(=O)OCc2oc(=O)oc2C)n1Cc1ccc(-c2ccccc2-c2nnn[nH]2)cc1 [OLMESARTAN MEDOXOMIL] | – | – | Compound metabolized | Compound metabolized | – | Compound metabolized | Compound metabolized | Compound metabolized | – | Compound metabolized | Compound metabolized | – | Compound metabolized | – | Compound metabolized | – | Compound metabolized | – | Compound metabolized | Compound metabolized
CC[C@H](C)C(=O)O[C@H]1C[C@@H](C)C=C2C=C[C@H](C)[C@H](CC[C@@H]3C[C@@H](O)CC(=O)O3)[C@H]21 [LOVASTATIN] | Compound NOT metabolized | Compound NOT metabolized | – | – | Compound NOT metabolized | Compound metabolized | Compound metabolized | Compound metabolized | – | Compound metabolized | Compound metabolized | Compound NOT metabolized | Compound metabolized | Compound NOT metabolized | Compound NOT metabolized | Compound metabolized | Compound NOT metabolized | Compound NOT metabolized | Compound NOT metabolized | Compound metabolized
